# Source: patent US8192962B2, “Processes for detecting toxic substances” (Daikin Industries, Ltd., priority 2001, dated 2012)
# Tested on: Mitochondria-located protein genes
# Test: DNA chip mRNA expression in yeast, mitochondria-located protein genes (Table 2)
# Type: cell-based, Saccharomyces cerevisiae S288C
# Conditions: cells incubated two hours with the chemical substance
# Description: Yeast (Saccharomyces cerevisiae S288C (α SUC2mal mel gap2 CUP1)) were incubated at 25° C. on YPD medium (yeast extract 1%, polypepton 2%, glucose 2%). One of toxic chemical substances was added to the cells at logarithmic growth phase, and the cells were further incubated for two hours. Cells were cultured without any chemical substance in the same condition, and were used as control. Concentrations of the chemical substances were defined to inhibit the growth of the yeast but not lead to death.
# After completion of the incubation, the culture was centrifuged to collect the cells. To the cells, sodium acetate buffer (50 mM sodium acetate, 10 mM EDTA, 1% SDS) was added, and the mixture was shaken at 65° C. for five minutes, followed by returning to room temperature, and obtaining the supernatant, of which the procedures were repeated two times. To the supernatant, ½ amount of a solution of phenol/chloroform was added, and the mixture was centrifuged to give a supernatant, which was added with an equal amount of chloroform, and the mixture was centrifuged to give a supernatant. To the supernatant, an equal amount of isopropanol containing 0.3 M sodium acetate was added, and the mixture was allowed to stand at room temperature for 30 minutes, after which the mixture was centrifuged to give a sediment of the whole RNAs. Seventy % ethanol was added to the sediment, and the mixture was again centrifuged to give a sediment, which was then dried and dissolved in water. mRNA was isolated from the whole RNAs as followings. In view of the fact that a poly A chain is attached to the 3′ terminus of mRNA, a polynucleotide having a poly T structure which was immobilized on the surface of latex beads was used to trap the mRNA, and then the mRNA was washed and eluted with spine column (Oligotex-dT30<Super>mRNA Purification Kit, Takara). Reverse transcription of the mRNA was conducted with a reverse transcriptase (Super Script II Reverse Transcriptase; catalogue No. 18064-014, GibcoBRL) using fluorescence-labeled nucleotides to give cDNAs that were introduced with Cy3-dUTP or Cy5-dUTP during the reverse transcription.
# The labeled cDNAs were dissolved in TE buffer (10mM Tris-HCl/1 mM EDTA, pH8.0), and the solution was dropped on the DNA chip containing the whole genes of yeast (DNA Chip Research Inc. Japan) so that the cDNAs were hybridized on the DNA chip at 65° C. for over 12 hours. The fluoresces intensity of the DNA chip was read with a scanner, and the ratio relative to the fluorescence intensity resulting from the absence of chemical substance was estimated as the following, which is shown in Tables 1 to 9: […]
smiles,measurement,setting,value
"CCCCCCCCCCCCc1ccc(S(=O)(=O)[O-])cc1.[Na+] [(17), sodium dodecylbenzosulfonate]",The level of expressed mRNA in the presence of chemical substance/The level of expressed mRNA in the absence of chemical substance,yeast gene YJR121W,1.1
same,The level of expressed mRNA in the presence of chemical substance/The level of expressed mRNA in the absence of chemical substance,yeast gene YKL003C,1.0
same,The level of expressed mRNA in the presence of chemical substance/The level of expressed mRNA in the absence of chemical substance,yeast gene YKL016C,1.0
same,The level of expressed mRNA in the presence of chemical substance/The level of expressed mRNA in the absence of chemical substance,yeast gene YKL141W,0.9
same,The level of expressed mRNA in the presence of chemical substance/The level of expressed mRNA in the absence of chemical substance,yeast gene YKL142W,2.4
same,The level of expressed mRNA in the presence of chemical substance/The level of expressed mRNA in the absence of chemical substance,yeast gene YKL148C,0.8
same,The level of expressed mRNA in the presence of chemical substance/The level of expressed mRNA in the absence of chemical substance,yeast gene YKL170W,1.1
same,The level of expressed mRNA in the presence of chemical substance/The level of expressed mRNA in the absence of chemical substance,yeast gene YKL194C,1.1
same,The level of expressed mRNA in the presence of chemical substance/The level of expressed mRNA in the absence of chemical substance,yeast gene YKR066C,0.9
same,The level of expressed mRNA in the presence of chemical substance/The level of expressed mRNA in the absence of chemical substance,yeast gene YLL041C,1.1
same,The level of expressed mRNA in the presence of chemical substance/The level of expressed mRNA in the absence of chemical substance,yeast gene YLR038C,1.2
same,The level of expressed mRNA in the presence of chemical substance/The level of expressed mRNA in the absence of chemical substance,yeast gene YLR259C,0.8
same,The level of expressed mRNA in the presence of chemical substance/The level of expressed mRNA in the absence of chemical substance,yeast gene YLR295C,0.9
same,The level of expressed mRNA in the presence of chemical substance/The level of expressed mRNA in the absence of chemical substance,yeast gene YLR304C,0.5
same,The level of expressed mRNA in the presence of chemical substance/The level of expressed mRNA in the absence of chemical substance,yeast gene YLR348C,1.1
same,The level of expressed mRNA in the presence of chemical substance/The level of expressed mRNA in the absence of chemical substance,yeast gene YLR395C,1.2
same,The level of expressed mRNA in the presence of chemical substance/The level of expressed mRNA in the absence of chemical substance,yeast gene YML054C,1.1
same,The level of expressed mRNA in the presence of chemical substance/The level of expressed mRNA in the absence of chemical substance,yeast gene YML120C,1.0
same,The level of expressed mRNA in the presence of chemical substance/The level of expressed mRNA in the absence of chemical substance,yeast gene YML129C,1.3
same,The level of expressed mRNA in the presence of chemical substance/The level of expressed mRNA in the absence of chemical substance,yeast gene YMR023C,1.1
same,The level of expressed mRNA in the presence of chemical substance/The level of expressed mRNA in the absence of chemical substance,yeast gene YMR035W,2.2
same,The level of expressed mRNA in the presence of chemical substance/The level of expressed mRNA in the absence of chemical substance,yeast gene YMR083W,0.9
same,The level of expressed mRNA in the presence of chemical substance/The level of expressed mRNA in the absence of chemical substance,yeast gene YMR089C,0.9
same,The level of expressed mRNA in the presence of chemical substance/The level of expressed mRNA in the absence of chemical substance,yeast gene YMR152W,1.5
same,The level of expressed mRNA in the presence of chemical substance/The level of expressed mRNA in the absence of chemical substance,yeast gene YMR203W,0.8
same,The level of expressed mRNA in the presence of chemical substance/The level of expressed mRNA in the absence of chemical substance,yeast gene YMR267W,0.9
same,The level of expressed mRNA in the presence of chemical substance/The level of expressed mRNA in the absence of chemical substance,yeast gene YNL055C,1.2
same,The level of expressed mRNA in the presence of chemical substance/The level of expressed mRNA in the absence of chemical substance,yeast gene YNL071W,1.0
same,The level of expressed mRNA in the presence of chemical substance/The level of expressed mRNA in the absence of chemical substance,yeast gene YNL073W,0.8
same,The level of expressed mRNA in the presence of chemical substance/The level of expressed mRNA in the absence of chemical substance,yeast gene YNL104C,0.9
same,The level of expressed mRNA in the presence of chemical substance/The level of expressed mRNA in the absence of chemical substance,yeast gene YNL256W,0.6
same,The level of expressed mRNA in the presence of chemical substance/The level of expressed mRNA in the absence of chemical substance,yeast gene YOL096C,1.2
same,The level of expressed mRNA in the presence of chemical substance/The level of expressed mRNA in the absence of chemical substance,yeast gene YOR020C,1.4
same,The level of expressed mRNA in the presence of chemical substance/The level of expressed mRNA in the absence of chemical substance,yeast gene YOR037W,1.2
same,The level of expressed mRNA in the presence of chemical substance/The level of expressed mRNA in the absence of chemical substance,yeast gene YOR100C,0.9
same,The level of expressed mRNA in the presence of chemical substance/The level of expressed mRNA in the absence of chemical substance,yeast gene YOR130C,1.5
same,The level of expressed mRNA in the presence of chemical substance/The level of expressed mRNA in the absence of chemical substance,yeast gene YOR142W,0.9
same,The level of expressed mRNA in the presence of chemical substance/The level of expressed mRNA in the absence of chemical substance,yeast gene YOR150W,0.9
same,The level of expressed mRNA in the presence of chemical substance/The level of expressed mRNA in the absence of chemical substance,yeast gene YOR176W,1.2
same,The level of expressed mRNA in the presence of chemical substance/The level of expressed mRNA in the absence of chemical substance,yeast gene YOR187W,0.8
same,The level of expressed mRNA in the presence of chemical substance/The level of expressed mRNA in the absence of chemical substance,yeast gene YOR316C,0.8
same,The level of expressed mRNA in the presence of chemical substance/The level of expressed mRNA in the absence of chemical substance,yeast gene YPL040C,0.8
same,The level of expressed mRNA in the presence of chemical substance/The level of expressed mRNA in the absence of chemical substance,yeast gene YPL134C,1.3
same,The level of expressed mRNA in the presence of chemical substance/The level of expressed mRNA in the absence of chemical substance,yeast gene YPL135W,1.5
same,The level of expressed mRNA in the presence of chemical substance/The level of expressed mRNA in the absence of chemical substance,yeast gene YPL215W,1.0
same,The level of expressed mRNA in the presence of chemical substance/The level of expressed mRNA in the absence of chemical substance,yeast gene YPL262W,1.1
same,The level of expressed mRNA in the presence of chemical substance/The level of expressed mRNA in the absence of chemical substance,yeast gene YPR024W,1.1
same,The level of expressed mRNA in the presence of chemical substance/The level of expressed mRNA in the absence of chemical substance,yeast gene YPR037C,1.2
same,The level of expressed mRNA in the presence of chemical substance/The level of expressed mRNA in the absence of chemical substance,yeast gene YPR047W,1.0
same,The level of expressed mRNA in the presence of chemical substance/The level of expressed mRNA in the absence of chemical substance,yeast gene YPR134W,1.0
